The test system of the assay is E. multilocularis metacestodes. The assay can be described thus: PGI assay: phosphoglucose isomerase release from damaged metacestodes. It counts as cell-based, Echinococcus multilocularis. The note with it: 10 μM, 5 days, single wells, relative to DB1127 (10 μM). The procedure:
The preparation of E. multilocularis metacestode material (strain H95) from intraperitoneally (i.p.) infected BALB/c mice was performed as described earlier. Metacestode vesicles were used for in vitro drug screening when they reached 2 to 4 mm in diameter.
For screening of the Malaria Box against E. multilocularis metacestodes, the PGI screening assay was applied that measures the release of the enzyme phosphoglucose isomerase (PGI) upon physical impairment of metacestodes. The screening setup was done in 24 well plates as described by Stadelmann et al. For initial screening, each drug was applied at 10 μM to metacestodes in single wells. As a positive control-drug, the dicationic diguanidino compound DB1127 (10 μM) was used and 0.1% DMSO was added as negative control. Metacestodes were cultured in the presence of the compounds for 5 days, after which PGI release was quantified exactly as stated in Stadelmann et al. […] Averages, standard deviations and EC50 values were calculated in Microsoft Excel 2010.
`Cc1nc2ccccc2c(O)c1CC=C(Cl)Cl` [MMV665994]: the “PGI (% of DB1127 at 10 uM)” value is 45.96%.
As to `O=C(Nc1ccc(-c2nc3ccccc3[nH]2)cc1)c1ccc(Cl)c(Cl)c1` [MMV665840], the “PGI (% of DB1127 at 10 uM)” value was -1.75%.
For `COc1ccc2sc(N(Cc3cccnc3)C(=O)c3ccc(C#N)cc3)nc2c1` [MMV001239], the “PGI (% of DB1127 at 10 uM)” value is on record as -2.38%.
The figure for `O=C(Nc1ccc(-c2nc3cc(NC(=O)c4ccc(Cl)cc4)ccc3[nH]2)cc1)c1ccc(Cl)cc1` [MMV006962] is -9.85%; for `CCOC(=O)c1cn(CC)c2cc(N(C)CCc3ccc(OC)c(OC)c3)c(F)cc2c1=O` [MMV665977] it is -67.06%.
Turning to `CC(C)CNC(=O)c1c(N)n(CCc2ccccc2F)c2nc3ccccc3nc12` [MMV396744], the “PGI (% of DB1127 at 10 uM)” value is recorded as -10.23%.
The result for `COc1ccc(C2N(C)c3ccccc3N2C)cc1` [MMV666075] reads 0.50%; that for `O=C(Cc1ccccc1)NC(c1ccc(Cl)cc1)c1c(O)ccc2ccccc12` (centres unmarked) [MMV665972], 15.67%.
The figure for `Cc1cccc(Nc2nc(N)c3ccccc3n2)c1.Cl` [MMV019110] is -9.63%; for `CCOc1ccc(C2N(C)c3ccccc3N2C)cc1` [MMV075490] it is 26.52%; for `OC(CNC1CCCC1)Cn1c2ccccc2c2ccccc21` (centres unmarked) [MMV000848] it is 6.03%.
The result for `CCN(CC)CCNc1ccnc2cc3ccccc3cc12` [MMV006303] reads -4.34%.
As for `Cc1ccc(N2C3c4ccccc4N(S(=O)(=O)c4ccc(C)cc4)C2c2ccccc2N3S(=O)(=O)c2ccc(C)cc2)cc1` [MMV007160], the “PGI (% of DB1127 at 10 uM)” value is on record as -42.36%.
For the compound `Oc1ccc(C(=C(Cl)Cl)c2ccc(O)cc2)cc1` [MMV665949], the “PGI (% of DB1127 at 10 uM)” value is recorded as 8.99%.
The result for `CCOC(=O)c1cnc2c(C)cccc2c1Nc1ccc(C(C)=O)cc1` [MMV006250] reads -32.91%; that for `CC(C)CCNCC(O)Cn1c2ccccc2c2ccccc21.Cl` (centres unmarked) [MMV006787], 62.04%; that for `COc1ccc(NC(=O)C2c3ccccc3C(=O)N(CC(C)C)C2c2cccs2)cc1Cl` (centres unmarked) [MMV000642], -45.07%.
The result for `COc1ccc(NC(=O)C2c3ccccc3C(=O)N(CC(C)C)C2c2cccs2)cc1` (centres unmarked) [MMV000662] reads -25.19%; that for `COc1cc2c3cc1Oc1c(OC)c(OC)cc4c1C(Cc1ccc(O)c(c1)Oc1ccc(cc1)CC3N(C)CC2)N(C)CC4.Cl` (centres unmarked) [MMV007474], -10.35%.
The result for `CN(C)CCNc1cc(-c2ccccc2)nc2ccccc12` [MMV006704] reads -13.50%; that for `Cc1ccc(Nc2nc(N)c3ccccc3n2)cc1Cl` [MMV011522], 12.79%.
For the compound `COc1ccc(CNC(=O)c2cc3c(=O)n4ccccc4nc3n(CCc3ccccc3)c2=N)cc1` [MMV665881], the “PGI (% of DB1127 at 10 uM)” value amounted to 6.76%.
The result for `CC1CC(C)CN(C(=O)c2ccc(Cl)cc2Cl)C1` (centres unmarked) [MMV001344] reads -22.37%.
The result for `COc1ccc(C2C(C(=O)Nc3cccc(OC)c3)c3ccccc3C(=O)N2C2CCCCC2)cc1` (centres unmarked) [MMV008455] reads -12.94%; that for `O=C1c2ccccc2C2=Nc3ccccc3SC(c3cccc(F)c3)C12` (centres unmarked) [MMV006389], -15.52%; that for `C=CCc1c(C)nc2ccccc2c1O` [MMV006913], -48.01%.
The figure for `COc1ccc(C(=O)NC(c2ccccc2Cl)c2cc(Cl)c3cccnc3c2O)cc1` (centres unmarked) [MMV666022] is 259.47%; for `CCOc1cc(Cl)c(C(C)NC(=O)c2cccc(OC)c2)cc1OCC` (centres unmarked) [MMV665803] it is -50.18%; for `Oc1ccc2ccccc2c1CNc1nc2ccccc2[nH]1` [MMV011832] it is 34.82%.
With `COc1ccc(CN2CCCC(C(=O)c3ccc(C(F)(F)F)cc3)C2)c(O)c1` (centres unmarked) [MMV666060], the “PGI (% of DB1127 at 10 uM)” value is -1.92%.
For `COc1cc(C(=O)Nc2ccc(-c3nc4ccccc4[nH]3)cc2)cc(OC)c1OC` [MMV665898], the “PGI (% of DB1127 at 10 uM)” value is recorded as -11.03%.
The figure for `CCOc1cc(CNC(C)C(O)c2ccccc2)cc(Cl)c1OCC` (centres unmarked) [MMV396633] is 30.39%.
With `CCCN(CCC)CC(O)COc1ccccc1C(=O)Nc1ccccc1` (centres unmarked) [MMV006455], the “PGI (% of DB1127 at 10 uM)” value was -26.39%.
The result for `CCc1ccc(CNCC(O)c2ccccc2)cc1.Cl` (centres unmarked) [MMV665812] reads -2.45%; that for `CCCc1c(C)nc2ccccc2c1O` [MMV666081], -67.20%; that for `CCOC(=O)C1=C(C)N=c2sc(=Cc3cc(Cl)ccc3O)c(=O)n2C1c1ccc(OC)cc1` (centres unmarked) [MMV665971], -11.30%.
The result for `CCCCOC(=O)c1ccc(Nc2cc(C)nc3ccc(OC)cc23)cc1` [MMV665797] reads 0.71%; that for `CCOc1ccccc1NC(=O)CN1CCN(C(=O)c2ccco2)CC1` [MMV007791], -28.95%; that for `Cc1cc(Nc2ccc(OCc3ccccc3)cc2)nc2cc(O)ccc12` [MMV007181], 115.72%.
The figure for `CCCCc1ccc(NS(=O)(=O)c2cc3c4c(c2)CCN4C(=O)CC3)cc1` [MMV001255] is -110.46%; for `Cc1ccc(S(=O)(=O)c2c(COC(=O)c3cccc(C)c3)c(-c3ccccc3)nn2C)cc1` [MMV665936] it is -18.54%; for `COc1ccc2nc(C)cc(Nc3cccc(O)c3)c2c1.Cl` [MMV008212] it is -12.96%.
`COc1ccc(C(O)(CCC(C)C)C(CN2CCOCC2)c2ccc(Cl)cc2)cc1.Cl` (centres unmarked) [MMV000617]: the “PGI (% of DB1127 at 10 uM)” value was -8.60%.
The result for `CCC(=O)Nc1nnc(Cc2ccc(OC)c(OC)c2)s1` [MMV020942] reads -6.11%; that for `O=C(NCCCN1CCC(N2CCCCC2)CC1)C1=Cc2cc(Br)ccc2OC1` [MMV019995], 11.48%; that for `CC(=O)Nc1nnc(SCc2c(C)cc(C(C)(C)C)cc2C)s1` [MMV020700], 1.07%.
Consider `Cc1cc(NCCN2CCCCC2)c2ccc3ccccc3c2n1` [MMV006203], for which the “PGI (% of DB1127 at 10 uM)” value was -66.37%.
The figure for `CN(C)CCCNc1c2ccccc2nc2ccccc12` [MMV000448] is -25.46%.
The figure for `CCOc1ccc(Nc2c3ccccc3nc3ccccc23)cc1.Cl` [MMV000304] is 38.31%.
Take `COc1ccc2c(c1OC)C(=O)N1c3ccccc3N=C(c3ccc(C)cc3)CC21` (centres unmarked) [MMV000917]: the “PGI (% of DB1127 at 10 uM)” value is -0.60%.
The result for `COc1cccc(C(=O)Nc2ccc(-c3nc4ccccc4[nH]3)cc2)c1` [MMV019762] reads -25.80%; that for `C[n+]1c2ccccc2nc2ccc(NCCO)cc21` [MMV396693], -18.69%.
The figure for `CCOC(=O)c1c(C)n(-c2ccc(Cl)cc2)c2ccc(OC(=O)C=Cc3ccccc3)cc12` [MMV666600] is -39.04%.
The figure for `CCOc1ccccc1CNC(=O)C1c2ccccc2C(=O)N(CC(C)C)C1c1cccs1` (centres unmarked) [MMV000653] is -120.29%; for `COc1ccc(C2=C(c3ccc(OC)cc3)C3(c4ccccc4)C(=O)C2(c2ccccc2)C2C(=O)N(c4ccc(C)cc4)C(=O)C23)cc1` (centres unmarked) [MMV666101] it is -51.33%.
For the compound `CCCCC(O)(c1ccc(Cl)cc1)C(CN1CCOCC1)c1ccc(Cl)cc1.Cl` (centres unmarked) [MMV000619], the “PGI (% of DB1127 at 10 uM)” value is given as -6.41%.
The figure for `C=C(C)CCC(C)N1CCC(N2CCC(C(=O)NCCc3ccccc3)CC2)CC1` (centres unmarked) [MMV666110] is -25.44%.
With `O=C(O)C1Cc2c([nH]c3ccccc23)C(c2ccc(Cl)cc2Cl)N1` (centres unmarked) [MMV008138], the “PGI (% of DB1127 at 10 uM)” value is recorded as -14.05%.
The result for `CCCCc1c(CCC)c(=N)c2ccccc2n1C.I` [MMV007764] reads 29.51%; that for `CCN(CC)CCNc1ncnc2c1[nH]c1ccc(Cl)cc12` [MMV396703], -47.33%.
Consider `CCCCCn1c(=N)n(CC(O)COc2cccc(C)c2)c2ccccc21.Cl` (centres unmarked) [MMV000444], for which the “PGI (% of DB1127 at 10 uM)” value is listed as 66.85%.
Take `COc1cccc(C2(C)Nc3ccccc3-c3nc4ccccc4n32)c1` (centres unmarked) [MMV396719]: the “PGI (% of DB1127 at 10 uM)” value worked out at 6.50%.
The result for `CCOc1ccc(CCNC(=O)c2cccs2)cc1OCC` [MMV007978] reads -3.44%.
The figure for `O=C(NC1CCN(Cc2ccccc2)CC1)c1cc2nc(-c3ccc(Cl)s3)cc(C(F)(F)F)n2n1` [MMV396635] is -11.44%.
The result for `COc1ccc2c(=O)cc(C(Cl)(Cl)Cl)oc2c1` [MMV665820] reads -22.08%; that for `Cc1sc2ncnc(Sc3nc4ccccc4[nH]3)c2c1C` [MMV019266], -32.46%; that for `COc1ccc(C(=O)C(CCC(CNC(C)(C)C)C(=O)c2ccc(OC)cc2)CNC(C)(C)C)cc1` (centres unmarked) [MMV007591], -0.71%.
Consider `CCOC(=O)c1cnc2ccc(Cl)cc2c1NCCCN(C)C` [MMV006882], for which the “PGI (% of DB1127 at 10 uM)” value is 9.75%.
The result for `CCN1CCN(Cc2ccc(NC(=O)c3cc4ccc5cccnc5c4[nH]3)cc2)CC1` [MMV020548] reads -26.47%; that for `COc1ccc(-c2nc(NC(=O)CS(=O)(=O)c3ccc(F)cc3)sc2C)cc1` [MMV665915], -67.15%.
The result for `CCCCCCc1cc(O)c2c3c(c(=O)oc2c1)CCC(C)C3` (centres unmarked) [MMV665987] reads 4.36%.
